Test system: rumen metabolites (Dimethylsulfone)
Assay: Rumen metabolites in rumen fluid of fistulated steers, quantified by NMR after 21 days of treatment
Type: in vivo, Brahman steers (Bos indicus)
Conditions: for Dimethylsulfone in rumen fluid: rumen fluid 3 h post feeding, days 20 and 21, 4 steers; for Change of the methyl donor (dimethylsulfone) in rumen fluid versus control period, in words: 21 days of treatment, Brahman steers
From the text: Eight fistulated Brahman steers (Bos indicus) were randomly allocated to two groups (4 animals per group) and received a forage ad libitum diet (Rhode grass hay (Chloris […]), chemical composition: DM, 917 g/kg fresh matter; in g/kg of DM: OM, 806; CP, 169; NDF, 661; ADF, 359; ADL, 46; ash, 116 and GE 17.38 MJ/kg). […] Animals were adapted to the diet over a 21 d period. After that initial period, experimental animals were placed into individual pens in an animal house for the measurement of intakes (10 d) and were treated with cyclodextrin (2 g/100 kg LW) and molasses (60 mL/d). On the last 2 days animals were placed into open-circuit respiration chambers for collection of rumen samples. […] On days 20 and 21 of treatment both groups were placed in open-circuit respiration chambers for rumen fluid collection. Rumen fluid samples (approx. 60 mL per animal) were collected using a probe with 2 layers of cheesecloth through the cannula of the animal at 3 h post feeding, during confinement in respiration chambers to determine rumen metabolites.

Row | SMILES | Dimethylsulfone in rumen fluid (1.6 g chloroform-CD/100 kg LW for 21 days, control period value 21) [μmol/L rumen fluid] | Change of the methyl donor (dimethylsulfone) in rumen fluid versus control period, in words | Dimethylsulfone in rumen fluid (2.5 g propanediol mononitrate/animal/day for 21 days, control period value 20) [μmol/L rumen fluid]
1 | ClC(Cl)Cl [Chloroform, chloroform] | 80 | statistically significant increase | 
2 | O=[N+]([O-])OCCCO [PDMN, 1,3-propanediol mononitrate] |  | statistically significant increase | 113

Source: US20230320999A1, “NON-THERAPEUTIC METHODS FOR ALLEVIATING OR REDUCING STRESS SYMPTOMS OF RUMINANTS” (DSM IP Assets B.V., priority 2018, published 2023)
